Article PMC9963937, “Synergistic Combination of Irinotecan and Rapamycin Orally Delivered by Nanoemulsion for Enhancing Therapeutic Efficacy of Pancreatic Cancer” (Pharmaceutics, 2023)
Read-outs that look alike come from different tables or passages of the source.

What was measured:
[1] = tested on: MIA PaCa-2 pancreatic cancer cell line; assay: MTT cell viability assay; type: cell-based; details: Homo sapiens, read-out: IC50 against MIA PaCa-2 cells
Procedure: To evaluate the cytotoxicity and combination effects of rapamycin and silymarin as well as free irinotecan, we performed the 3-(4,5-dimethylthiazol-2-yl)-2,5-diphenyl-2H-tetrazolium bromide (MTT) assay by using the MIA PaCa-2 pancreatic cancer cell line. Briefly, the cells were seeded in a 96-well plate at a density of 3 × 10^4 cells/well and incubated at 37 °C with 5% CO2 for 24 h. After 24 h, the cells were treated with different concentrations of free irinotecan (0–300 µM), rapamycin (0–300 µM), SN38 (0–300 nM), and silymarin (0–1000 µM). To determine the combination effect, the cells were treated with different ratios of irinotecan/rapamycin and SN38/rapamycin (1/0.3, 1/0.5, 1/1, and 1/2) and irinotecan/silymarin and SN38/silymarin (1/1 and 1/2). All the cells were incubated with the drugs for 24–48 h. Then, the MTT reagent and dimethyl sulfoxide were added for the formation and the dissolution of purple formazan crystals. The absorbance of each well was measured at 550 nm on a Cytation 3 cell imaging multimode reader (BioTek, Winooski, VT, USA). The half-maximal inhibitory concentration (IC50) and combination index (CI) of the drugs were calculated using CompuSyn Sofware (Paramus, NJ, USA) through the Chou–Talalay method. In the Chou–Talalay method, the CI values of <0.9, >1.1, and 0.9–1.1 indicated synergistic, antagonistic, and additive effects, respectively. Each data point was the mean of at least six individual experiments.

[2] = In vitro release from LBSNENP, USP Apparatus 2 dissolution; type: physicochemical; details: endpoint (60 min)
Procedure: The contents of irinotecan and rapamycin in LBSNENPir and LBSNENPra were detected through HPLC. To determine the irinotecan content, we used the Waters 600E HPLC system with the SunFire C18 column (4.6 mm × 250 mm I.D., 5 μm; Waters). The mobile phase consisted of 10 mM phosphate buffer (pH 3.0)/acetonitrile/tetrahydrofuran (65/35/2 v/v), the flow rate was 0.8 mL/min, the column was maintained at 40 °C, the injection volume was 20 µL, and the fluorescence detector was set at the excitation and emission wavelengths of 370 and 470 nm, respectively. To determine the rapamycin content, we used the JASCO HPLC system with the Inersil ODS-2 C18 column (4.0 mm × 150 mm I.D., 5 μm). The mobile phase was a mixture of acetonitrile and water (20/80 v/v), the flow rate was 1.0 mL/min, the column was maintained at 55 °C, the injection volume was 100 µL, and the UV detector was set at the wavelength of 278 nm. Each data point came from the mean of at least three individual trials. The assay method was also well validated before. […]
The in vitro release of irinotecan and rapamycin from LBSNENP was examined using the dissolution method on United States Pharmacopeia (USP) Apparatus 2 (VK7000, Vankel, UK). […] The contents of irinotecan and rapamycin were determined through HPLC as described in the earlier text. […]

SMILES: CCc1c2c(nc3ccc(OC(=O)N4CCC(N5CCCCC5)CC4)cc13)-c1cc3c(c(=O)n1C2)COC(=O)[C@]3(O)CC [irinotecan, Irinotecan]
- IC50 ([1]; MIA PaCa-2, 24 h): 4.78 ± 9.42 µM
- IC50 ([1]; MIA PaCa-2, 48 h): 12.2 ± 4.56 µM
- dissolution percentage of raw irinotecan powder at the endpoint ([2]; buffer pH 1.2, 37 °C, 50 rpm): approximately 63%

SMILES: CO[C@H]1C[C@@H]2CC[C@@H](C)[C@@](O)(O2)C(=O)C(=O)N2CCCC[C@H]2C(=O)O[C@H]([C@H](C)C[C@@H]2CC[C@@H](O)[C@H](OC)C2)CC(=O)[C@H](C)/C=C(\C)[C@@H](O)[C@@H](OC)C(=O)[C@H](C)C[C@H](C)/C=C/C=C/C=C/1C [rapamycin, Rapamycin]
- IC50 ([1]; MIA PaCa-2, 24 h): 2.98 ± 0.97 µM
- IC50 ([1]; MIA PaCa-2, 48 h): 3.88 ± 1.17 µM
- dissolution percentage of raw rapamycin powder at the endpoint ([2]; 0.4% sodium lauryl sulfate solution, 37 °C, 100 rpm): ~32%
